# Results published in article PMC12202533, “Mechanistic Insights and Anti-cancer Activity of 2H-benzo[b][1,4]oxazin-3(4H)-one Linked 1,2,3-Triazoles in Human Cancer Cells” (Frontiers in Pharmacology, 2025).
# Read-outs that look alike come from different tables or passages of the source.
# Legend:
# A549 lung cancer cell = tested on: A549 lung cancer cell; parameters: method as in Zhou et al. (2014); details: by inducing autophagy and cell cycle arrest; ref Zhou et al. (2014); cited from earlier work
# A549 [1] = tested on: A549; parameters: method as in Rajitha et al., 2011; details: ref Rajitha et al., 2011; cited from earlier work
# DLD-1 = tested on: DLD-1; parameters: method as in Rajitha et al., 2011; details: ref Rajitha et al., 2011; cited from earlier work
# MV4-11 = tested on: MV4-11; parameters: method as in Rajitha et al., 2011; details: ref Rajitha et al., 2011; cited from earlier work
# PI3Kα = tested on: PI3Kα; parameters: method as in Yan et al., 2019; details: ref Yan et al., 2019; read-out: IC50 against PI3Kα; cited from earlier work
# HeLa = tested on: HeLa; parameters: method as in Yan et al., 2019; details: ref Yan et al., 2019; cited from earlier work
# A549 cells [2] = tested on: A549 cells; parameters: method as in Yan et al., 2019; details: ref Yan et al., 2019; cited from earlier work
# [3] = parameters: method as in Yan et al., 2019; details: mice; ref Yan et al., 2019; cited from earlier work
# HepG2 cells = tested on: HepG2 cells; parameters: method as in Xie et al., 2023; details: ref Xie et al., 2023, cited from earlier work
# HCT116 cells [4] = tested on: HCT116 cells; parameters: method as in El Hamaky et al., 2024; details: ref El Hamaky et al., 2024, cited from earlier work
# topoisomerase I = tested on: topoisomerase I; parameters: method as in El Hamaky et al., 2024; details: ref El Hamaky et al., 2024; cited from earlier work
# topoisomerase II [5] = tested on: topoisomerase II; parameters: method as in El Hamaky et al., 2024; details: ref El Hamaky et al., 2024; cited from earlier work
# tubulin polymerization = tested on: tubulin polymerization; parameters: method as in El Hamaky et al., 2024; details: ref El Hamaky et al., 2024; cited from earlier work
# A549 cells [6] = tested on: A549 cells; parameters: method as in Bollu et al., 2017; details: ref Bollu et al., 2017; cited from earlier work
# HeLa cells = tested on: HeLa cells; parameters: method as in Srinivas Reddy et al., 2022; details: ref Srinivas Reddy et al., 2022; cited from earlier work
# A549 [7] = test: CCK-8 cell viability assay and IC50 measurement; format: cell-based, human; details: Homo sapiens; for viability at 40 µM / inhibition at 40 µM: A549, 40 μM, 48 h; for viability at 40 µM: CCK-8, read-out: Cell viability (100%), 40 μM, 48 h, A549; for inhibition at 40 µM: read-out: inhibition rate
# Method: (§1) In order to investigate the anticancer activity of new synthetic 1,4-benzoxazinone-linked 1,2,3-triazole compounds, we chose several cancer cell lines, including A549 (lung), Huh7 (liver), MCF-7 (breast), HCT-116 (colon), and SKOV3 (ovary), and measured cell viability using the CCK-8 assay. Cells were exposed to 40 μM of the compounds for 48 h, and then cell viability was determined. […] In addition, we used the reference drug gefitinib as a positive control and measured its cell viability on different cell lines. […] We used BEAS-2B cells as a normal cell line to determine the toxic effects of these compounds on normal cells. […] Furthermore, we evaluated the IC50 of these compounds in A549.
# (§2) Human cancer cell lines A549, Huh7, MCF-7, HCT-116, and SKOV3 were obtained from ATCC. The cells were cultured in DMEM or RPMI 1640 medium supplemented with 10% FBS and 1% penicillin/streptomycin and incubated at 37°C in a CO2-humidified atmosphere.
# (§3) Cells were cultured in DMEM or RPMI 1640 medium containing 10% FBS and 1% penicillin/streptomycin at 37°C and 5% CO2. The CCK-8 assay was performed on several human cancer cell lines, including A549, Huh7, MCF-7, HCT-116, and SKOV3, according to the manufacturer’s instructions. Cells were plated at a density of 5 × 10^3 cells per well in a 96-well plate. After 24 h of incubation, cells were treated with 40 μM compounds for 48 h. Cell viability was assessed by adding 10 μL of CCK-8 reagent, dissolved in the cell culture medium, and incubating for 1 h. Absorbance was measured at 450 nm using a microplate reader. IC50 values were determined using a dose-response curve with six concentrations (0, 10, 20, 40, 80, and 160 μM), and IC50 values were calculated using GraphPad Prism software.
# HCT-116 = test: CCK-8 cell viability assay; format: cell-based; details: Homo sapiens, HCT-116, 40 μM, 48 h, read-out: Cell viability (100%), 40 μM, 48 h, HCT-116
# Method: as §1, §2, §3
# Huh7 = test: CCK-8 cell viability assay; format: cell-based; details: Homo sapiens, Huh-7, Huh7, 40 μM, 48 h, read-out: Cell viability (100%), 40 μM, 48 h, Huh7
# Method: as §1, §2, §3
# MCF-7 = test: CCK-8 cell viability assay; format: cell-based; details: Homo sapiens, MCF7, MCF-7, 40 μM, 48 h, read-out: Cell viability (100%), 40 μM, 48 h, MCF-7
# Method: as §1, §2, §3
# SKOV3 = test: CCK-8 cell viability assay; format: cell-based; details: Homo sapiens, SK-OV-3, SKOV3, 40 μM, 48 h, read-out: Cell viability (100%), 40 μM, 48 h, SKOV3
# Method: as §1, §2, §3
# [8] = CCK-8 cell viability assay, normal cell line; format: cell-based; details: human, BEAS-2B cells (normal cell line), BEAS-2B normal cell line, read-out: Cell viability (100%), 40 μM, 48 h, BEAS-2B
# Method: as §1, §3
# HCT116 cells [9] = tested on: HCT116 cells; parameters: method as in Mohammed et al., 2022; details: MTT assay; ref Mohammed et al., 2022; cited from earlier work
# topoisomerase II [10] = target: topoisomerase II; parameters: method as in Mohammed et al., 2022; details: ref Mohammed et al., 2022; cited from earlier work
# [11] = A549, 48 h, read-out: IC50 48 h
# [12] = A549, 72 h, read-out: IC50 72 h
smiles,measurement,setting,value
COc1cc(/C=C/C(=O)c2ccc3c(c2)NC(=O)CO3)cc(OC)c1 [compound 4],A549 lung cancer cell growth,A549 lung cancer cell,effectively suppressed
O=C1COc2ccc(-c3[nH]c(-c4ccc(C(F)(F)F)cc4)nc3-c3ccccc3)cc2N1 [compound 5],viability of A549 cells,A549 [1],significantly reduced
same,viability of DLD-1 cells,DLD-1,significantly reduced
same,viability of MV4-11 cells,MV4-11,significantly reduced
COc1ccc(N2C(=O)COc3ccc(-c4cnc(OC)c(NS(=O)(=O)c5ccc(F)cc5)c4)cc32)cc1 [compound 6],IC50,PI3Kα,0.00063 µM
same,IC50,HeLa,1.35 µM
same,IC50,A549 cells [2],1.22 µM
same,oral bioavailability,[3],good
COc1c2n(cc(C(=O)Nc3cccc(-c4cn(-c5c(C)cc(C)cc5C)nn4)c3)c1=O)C[C@H]1OC[C@H](C)N1C2=O [compound 7],"apoptosis, G2/M phase arrest, and DNA damage",HepG2 cells; concentration-dependent,induced
same,IC50,HepG2 cells,4.07 ± 0.09 µM
Cc1ccc(NC(=O)Cn2cc(CSc3nc4ccccc4c(=O)n3-c3ccccc3)nn2)cc1 [compound 8],γ-H2AX protein expression,HCT116 cells [4]; HCT116,upregulated
same,IC50,HCT116 cells [4],4.87 ± 0.78 µM
same,topoisomerase I inhibition,topoisomerase I,significantly inhibited
same,topoisomerase II inhibition,topoisomerase II [5],significantly inhibited
same,tubulin polymerization inhibition,tubulin polymerization,significantly inhibited
COc1ccc(-c2nc3ccccc3c(=O)n2C/C=C/c2ccc(C(=O)CN3C(=O)COc4ccccc43)cc2)c(OC)c1OC [compound 3],GI50,A549 cells [6],0.32 µM
N#Cc1ccc(-n2nnc3c2-c2cc(Cl)c4cccnc4c2OC3)cc1 [compound 9],IC50,HeLa cells,3.38 ± 1.14 µM
O=C1COc2ccc(NC(=O)c3cccc(-c4cn(-c5ccccc5Cl)nn4)c3)cc2N1 [Compound 14e],IC50,A549 [7]; [11],29.1 ± 1.15 µM
same,IC50,A549 [7]; [12],27.8 ± 0.96 µM
same,viability at 40 µM,A549 [7],46.5 ± 2.68%
same,inhibition at 40 µM,A549 [7],> 50%
same,viability at 40 µM,HCT-116,118 ± 5.23%
same,viability at 40 µM,Huh7,134.1 ± 0.79%
same,viability at 40 µM,MCF-7,127 ± 1.89%
same,viability at 40 µM,SKOV3,86.5 ± 4.84%
same,"viability at 48 h, 40 µM",[8],97.5 ± 2.69%
Cc1cc(C)cc(Cn2cc(-c3cccc(C(=O)Nc4ccc5c(c4)NC(=O)CO5)c3)nn2)c1 [Compound 13b],viability at 40 µM,A549 [7],114.5 ± 1.06%
same,viability at 40 µM,HCT-116,124 ± 4.48%
same,viability at 40 µM,Huh7,108 ± 1.9%
same,viability at 40 µM,MCF-7,112 ± 2.33%
same,viability at 40 µM,SKOV3,115 ± 2.08%
same,"viability at 48 h, 40 µM",[8],105.7 ± 0.38%
COc1ccc(/C=C/C(=O)c2ccc(-n3cc(CN4CCN(c5cc6c(cc5F)c(=O)c(C(=O)O)cn6C5CC5)CC4)nn3)cc2)cc1OC [compound 10],IC50,HCT116 cells [9],10.6 ± 0.8 µM
same,IC50,topoisomerase II [10],19.7 ± 0.79 µM
O=C1COc2ccc(NC(=O)c3cccc(-c4cn(Cc5c(F)cccc5Cl)nn4)c3)cc2N1 [Compound 13e],IC50,A549 [7]; [11],> 100 µM
same,IC50,A549 [7]; [12],64.7 ± 7.35 µM
same,viability at 40 µM,A549 [7],45.95 ± 0.35%
same,inhibition at 40 µM,A549 [7],> 50%
same,viability at 40 µM,HCT-116,60.9 ± 1.95%
same,viability at 40 µM,Huh7,126 ± 1.82%
same,viability at 40 µM,MCF-7,120 ± 3.06%
same,viability at 40 µM,SKOV3,85.8 ± 4.65%
same,"viability at 48 h, 40 µM",[8],108 ± 1.19%
O=C1COc2ccc(NC(=O)c3cccc(-c4cn(Cc5c(Cl)cccc5Cl)nn4)c3)cc2N1 [Compound 13n],IC50,A549 [7]; [11],88.6 ± 18 µM
same,IC50,A549 [7]; [12],77 ± 6.21 µM
same,viability at 40 µM,A549 [7],55.6 ± 1.02%
same,viability at 40 µM,HCT-116,83.1 ± 1.96%
same,viability at 40 µM,Huh7,129.4 ± 0.81%
same,viability at 40 µM,MCF-7,122 ± 3.23%
same,viability at 40 µM,SKOV3,89.3 ± 1.41%
same,"viability at 48 h, 40 µM",[8],104.7 ± 0.69%
